This is an account of results in US20140107113A1, “PHARMACEUTICAL COMPOSITION COMPRISING A TRPA1 ANTAGONIST AND A BETA-2 AGONIST” (GLENMARK PHARMACEUTICALS SA, priority 2011, published 2014).

For orientation: IC50 means the concentration at which inhibition is half-maximal.

Molecules are shown by their SMILES.

T1 sequence (O75762 whole entry): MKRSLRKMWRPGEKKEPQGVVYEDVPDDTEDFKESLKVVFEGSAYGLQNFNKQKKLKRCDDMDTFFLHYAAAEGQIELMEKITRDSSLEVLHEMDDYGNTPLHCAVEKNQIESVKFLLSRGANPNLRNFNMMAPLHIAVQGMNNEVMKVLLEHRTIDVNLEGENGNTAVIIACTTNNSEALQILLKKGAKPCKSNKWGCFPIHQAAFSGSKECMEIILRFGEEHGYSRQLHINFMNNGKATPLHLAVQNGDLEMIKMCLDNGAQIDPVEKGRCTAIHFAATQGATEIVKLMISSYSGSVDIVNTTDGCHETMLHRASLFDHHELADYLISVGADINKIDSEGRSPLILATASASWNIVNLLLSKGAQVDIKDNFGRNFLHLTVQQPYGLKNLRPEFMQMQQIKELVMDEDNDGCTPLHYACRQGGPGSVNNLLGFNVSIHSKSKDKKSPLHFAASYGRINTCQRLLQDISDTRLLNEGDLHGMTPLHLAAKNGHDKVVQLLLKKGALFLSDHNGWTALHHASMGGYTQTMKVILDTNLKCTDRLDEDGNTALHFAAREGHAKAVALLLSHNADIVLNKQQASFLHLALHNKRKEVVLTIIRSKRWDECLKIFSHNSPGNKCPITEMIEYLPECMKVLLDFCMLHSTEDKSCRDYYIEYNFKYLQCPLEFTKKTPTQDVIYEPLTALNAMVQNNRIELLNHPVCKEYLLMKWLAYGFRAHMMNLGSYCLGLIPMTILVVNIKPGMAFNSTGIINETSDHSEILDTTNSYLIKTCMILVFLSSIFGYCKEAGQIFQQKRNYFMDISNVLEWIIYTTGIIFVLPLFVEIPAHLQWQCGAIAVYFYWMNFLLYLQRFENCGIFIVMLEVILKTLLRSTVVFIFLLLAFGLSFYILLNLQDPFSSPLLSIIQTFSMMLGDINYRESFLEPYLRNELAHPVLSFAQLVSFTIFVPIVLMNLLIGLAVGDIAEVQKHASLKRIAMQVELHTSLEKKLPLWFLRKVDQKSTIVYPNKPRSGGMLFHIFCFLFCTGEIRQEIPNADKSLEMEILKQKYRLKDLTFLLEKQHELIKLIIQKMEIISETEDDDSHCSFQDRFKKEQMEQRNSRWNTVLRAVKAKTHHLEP

This assay addresses T1, human TRPA1 receptor (Homo sapiens, UniProt O75762).
T1 construct: expressed in transfected cells; host or cells: CHO cells
Put plainly: Inhibition of AITC induced cellular uptake of radioactive calcium in human TRPA1 expressing CHO cells. The format is cell-based. The following applies: read-out: hTRPA1 IC50 values. The procedure: The human IC50 values were measured by the following method:
The inhibition of TRPA1 receptor activation is measured as inhibition of allylisothiocyanate (AITC) induced cellular uptake of radioactive calcium.
Test compound solution is prepared in a suitable solvent.
Human TRPA1 expressing CHO cells are grown in suitable medium. Cells are treated with test compounds followed by addition of AITC.
Cells are washed, lysed and the radioactivity in the lysate is measured in Packard Top count after addition of liquid scintillant.
The concentration response curves for compounds are plotted as a % of maximal response obtained in the absence of test antagonist, and the IC50 values are calculated from such concentration response curve by nonlinear regression analysis using GraphPad PRISM software.
With `Cn1c(=O)c2c(CC(=O)Nc3ccn(-c4cccc(C(F)(F)F)c4)n3)cccc2n(C)c1=O` [Compound 16], the IC50 is 58.9 nM. Consider `CC(C)Cc1ccc(-c2csc(NC(=O)Cc3cccc4c3c(=O)n(C)c(=O)n4C)n2)cc1` [Compound 23], for which the IC50 came out at 43.9 nM. The result for `Cn1c(=O)c2c(ccn2CC(=O)Nc2nc(-c3cc(Cl)c(OCCC(F)(F)F)c(Cl)c3)cs2)n(C)c1=O` [Compound 35] reads 18 nM.

As for `Cn1c(=O)c2c(ccn2CC(=O)Nc2nc(-c3cc(F)c(OCC(F)(F)F)c(F)c3)cs2)n(C)c1=O` [Compound 37], the IC50 turned out to be 12.3 nM. For the compound `Cn1c(=O)c2c(cnn2CC(=O)Nc2nc(-c3cc(Cl)c(OCC(C)(C)C)c(Cl)c3)cs2)n(C)c1=O` [Compound 44], the IC50 is 8.36 nM. Turning to `Cn1c(=O)c2c(CC(=O)Nc3nc(-c4ccc(C(F)(F)F)c(F)c4)cs3)csc2n(C)c1=O` [Compound 51], the IC50 came to 4.84 nM. Consider `Cn1c(=O)c2c(CC(=O)Nc3nc(-c4ccc(F)c(C(F)(F)F)c4F)cs3)csc2n(C)c1=O` [Compound 52], for which the IC50 is 2.49 nM. For the compound `Cn1c(=O)c2c(CC(=O)Nc3nc(-c4cc(F)c(OCC(F)(F)F)c(F)c4)cs3)coc2n(C)c1=O` [Compound 56], the IC50 stood at 3.38 nM. In the case of `Cc1oc2c(c1CC(=O)Nc1nc(-c3ccc(C(F)(F)F)c(F)c3)cs1)c(=O)n(C)c(=O)n2C` [Compound 65], the half-maximal inhibitory concentration (IC50) came out at 6.65 nM. With `Cc1oc2c(c1CC(=O)Nc1nc(-c3ccc(OC(F)(F)F)c(Cl)c3)cs1)c(=O)n(C)c(=O)n2C` [Compound 73], the IC50 came out at 8.54 nM. The result for `Cn1c(=O)c2c(CC(=O)Nc3nc(-c4ccc(C(F)(F)F)c(F)c4F)cs3)nsc2n(C)c1=O` [Compound 84] reads 5.35 nM; that for `Cn1c(=O)c2c(CC(=O)Nc3nc(-c4ccc(OC(F)(F)F)c(F)c4)cs3)nccc2n(C)c1=O` [Compound 88], 11.4 nM. For `COCCCOc1cccc(C2NC(=S)NC3=C2C(=O)c2ccccc23)c1` (centres unmarked) [Compound 90], the IC50 is 5.61 nM. As to `Cn1c(=O)c2c(ncn2CC(=O)Nc2nc(-c3ccc(Br)cc3)cs2)n(C)c1=O` [Compound 91], the IC50 worked out at 451 nM. As for `Cn1c(=O)c2c(CC(=O)Nc3nc(-c4ccc(F)c(C(F)(F)F)c4F)cs3)onc2n(C)c1=O` [Compound 92], the IC50 worked out at 17.1 nM. In the case of `Cc1oc2c(c1CC(=O)/N=c1\scc(-c3ccc(OC(F)(F)F)c(Cl)c3)n1COC(=O)[C@@H](N)C(C)C)c(=O)n(C)c(=O)n2C` [Compound 95], the concentration for half-maximal inhibition (IC50) was 88.5 nM. In the case of `Cc1oc2c(c1CC(=O)N=c1scc(-c3ccc(OC(F)(F)F)c(Cl)c3)n1COC(=O)CN)c(=O)n(C)c(=O)n2C` [Compound 98], the IC50 was 54.3 nM.
